Test results reported in the NIST ThermoML archive (doi:10.1007/s10765-010-0717-9).
Numbers after ± are expanded uncertainties.

Conditions: 298.15 K; 101.33 kPa; Liquid; Pycnometric method

| SMILES | mass density [kg/m3] |
| --- | --- |
| Cc1ccc(C)cc1 [1,4-dimethylbenzene] | 856.58 ± 5.3 |
| Cc1ccccc1C [1,2-dimethylbenzene] | 875.99 ± 5.6 |
| Cc1ccccc1 [toluene] | 862.21 ± 5.4 |
